Data: US12156865B2, “Formulation for soft anticholinergic analogs” (Bodor Laboratories, Inc., priority 2016, dated 2024)

Legend:
[1] = tested on: sweat production in subjects with axillary hyperhidrosis; experiment: Study BBI-4000-CL-101: gravimetrically measured sweat production; assay type: in vivo, human
Description: (§1) Efficacy was assessed by the change in gravimetrically measured sweat production and the change in hyperhidrosis disease severity scale (HDSS) from baseline to Day 15 (end of therapy).
For the gravimetric assessment, sweat production was measured by placing filter paper (pre-weighed) on the axilla for 5 minutes while the subject was in a semi-reclining position at room temperature. The filter paper was covered with plastic during exposure to the axilla, and was then weighed following the 5-minute exposure period to calculate the amount of sweat produced.

Gottingen Minipigs = experiment: 14-day dermal and systemic toxicity study in Gottingen Minipigs; conditions: anhydrous composition, 14 days
Description: (§2) All groups received 2 mL of gel formulation, once a day, for 14 consecutive days, applied to approximately 10% of their body surface area on their backs.
The study included daily observations of the site of application and scoring of erythema and edema (if present), daily general examinations including heart rate as well as pupil size assessment at days 1, 2, 3, 5, 7, 10 and 14. The frequent observations of heart rate and pupil size were intended to identify any potential systemic anticholinergic effect. Main organs were evaluated during necropsy and histopathology evaluation was completed for treated and untreated skin. Blood samples for chemistry and hematology analysis were collected as well as PK samples.
(§3) The estimated BBI-4000 dose applied to the skin in this study was 40 mg/kg/day for Group 3 and 20 mg/kg/day for Group 2.

[2] = Hydrolysis and stability testing of aqueous BBI-4000 formulations (HPLC); conditions: aqueous formulations of Table II
Description: An HPLC method was developed at a commercial laboratory for assaying the soft anticholinergic analog, and related substances (including hydrolysis products):
• High performance liquid chromatography (HPLC) system Chromatography data system • XBridge Shield RP18, 4.6×150 mm, 3.5 μm HPLC column • Analytical balance capable of weighing to 0.00001 g • Ultrasonic bath • Volumetric flasks, 1, 5 mL • Syringe Filter: 25 mm, 0.45 μm, HPF Millex-HV, Millipore or suitable alternative
• BBI-4000 standard • Water, HPLC grade • Acetonitrile (can), Optima grade • Trifluroacetic acid (TFA), Fisher • Mobile Phase “A”: 0.1% TFA in Water • Mobile Phase “B”: 0.1% TFA in Acetonitrile • Auto Sampler Flush: 1:1 Water:Acetonitrile • Diluent: Acetonitrile
The standards were prepared in duplicate by weighing 2.0±0.1 mg of BBI-4000 into 1 mL volumetric flasks. Dissolved and diluted to volume with acetonitrile and mixed by inversion.
The liquid chromatographic system was set-up as follows: • HPLC Column: XBridge Shield RP18, 4.6×150 mm, 3.5 μm • Column Temp.: 25±1° C. • Sample Temp.: ambiant • Flow Rate: 1.5 mL/min • Injection Volume: 10 μL • UV Detection: 220 nm • Run Time: 20 minutes
The HPLC assay was conducted on formulations at differing pH values, and the results were reviewed for “Time-Zero” and at 7 days at 40° C.:

[3] = Toxicokinetics (PK analysis) in Gottingen Minipigs; assay type: in vivo
Description: as §2
Blood samples for chemistry and hematology analysis were collected as well as PK samples.
as §3

[4] = Stability of approximately 2% BBI-4000 formulations in four solvent systems (HPLC); assay type: physicochemical; conditions: for Change from Baseline (40° C./75%), reduction: after 7 days at 40° C./75% humidity
Description: Various formulations of approximately 2% BBI-4000 were made and their stabilities assessed. The solvent systems were as follows:
(a) solvent content: 100% water;
(b) solvent content: 60% water/40% ethanol;
(c) solvent content: 30% water/70% ethanol;
(d) solvent content: 100% ethanol.
Each sample was assessed at baseline; after 7 days at 25° C./60% humidity; and after 7 days at 40° C./75% humidity. The percentage change from baseline for 40° C. after 7 days was calculated in each case. HPLC analysis was conducted as described in EXAMPLE 2 below.

[5] = tested on: subjects with axillary hyperhidrosis; experiment: Study BBI-4000-CL-101: hyperhidrosis disease severity scale (HDSS); assay type: in vivo, human
Description: as §1
For the HDSS, subjects rated the severity of their hyperhidrosis on a 4-point scale (1, 2, 3, or 4) based on the level of interference with their daily activities.

[6] = Solvent Content: 30% water, 70% Ethanol, Baseline
[7] = Solvent Content: 30% water, 70% Ethanol, Day 7 @ 25° C./60%
[8] = Solvent Content: 30% water, 70% Ethanol, Day 7 @ 40° C./75%
[9] = Solvent Content: 60% water, 40% Ethanol, Baseline
[10] = Solvent Content: 60% water, 40% Ethanol, Day 7 @ 25° C./60%
[11] = Solvent Content: 60% water, 40% Ethanol, Day 7 @ 40° C./75%
[12] = Solvent Content: 100% Ethanol, Baseline
[13] = Solvent Content: 100% Ethanol, Day 7 @ 25° C./60%
[14] = Solvent Content: 100% Ethanol, Day 7 @ 40° C./75%
[15] = Solvent Content: 100% Water, Baseline
[16] = Solvent Content: 100% Water, Day 7 @ 25° C./60%
[17] = Solvent Content: 100% Water, Day 7 @ 40° C./75%

CCOC(=O)C[N@+]1(C)CCC(OC(=O)[C@](O)(c2ccccc2)C2CCCC2)C1.[Br-] (stereo partly drawn) [BBI-4000, (2R,3′R) 3-(2-cyclopentyl-2-phenyl-2-hydroxyacetoxy)-1-(ethoxycarbonylmethyl)-1-methylpyrrolidinium bromide]
Reduction in gravimetrically measured sweat production compared to vehicle ([1]; Cohort 2, baseline to Day 15): greater reduction | Proportion of subjects with at least a 50% reduction in sweat production ([1]; Day 15, aggregate of 5% and 10% gel (9 of 12)): 75% | Histopathology analysis of treated skin (Gottingen Minipigs): unremarkable and identical to non-treated and vehicle treated skin | BBI-4000 content (assay number) ([2]; differing pH, Day 7 at 40° C. vs Time-Zero): decreased | Hydrolytic degradation products (two zwitterion stereoisomers, RRT 0.84 and RRT 0.80) ([2]; Day 7 at 40° C.): noticeably increased | Systemic exposure of BBI-4000 (PK analysis) ([3]; 10% and 20% gel (20 and 40 mg/kg/day), topical, 14 days): variable, dose related systemic exposure | Time at which the highest concentration was observed ([3]; after Day-14 dosing, minipig receiving 20% BBI-4000 concentration): 2 h | BBI-4000 Assay [4, 6]: 1.99% | BBI-4000 Main Hydrolysis Products (RRT-0.79-0.84) [4, 6]: 0% | BBI-4000 Assay [4, 7]: 1.95% | BBI-4000 Main Hydrolysis Products (RRT-0.79-0.84) [4, 7]: 0.84% | BBI-4000 Assay [4, 8]: 1.89% | BBI-4000 Main Hydrolysis Products (RRT-0.79-0.84) [4, 8]: 3.50% | Change from Baseline (40° C./75%), reduction ([4]; Solvent Content: 30% water, 70% Ethanol): 5% | BBI-4000 Assay [4, 9]: 1.99% | BBI-4000 Main Hydrolysis Products (RRT-0.79-0.84) [4, 9]: 0% | BBI-4000 Assay [4, 10]: 1.94% | BBI-4000 Main Hydrolysis Products (RRT-0.79-0.84) [4, 10]: 0.83% | BBI-4000 Assay [4, 11]: 1.89% | BBI-4000 Main Hydrolysis Products (RRT-0.79-0.84) [4, 11]: 3.40% | Change from Baseline (40° C./75%), reduction ([4]; Solvent Content: 60% water, 40% Ethanol): 5% | BBI-4000 Assay [4, 12]: 2.02% | BBI-4000 Main Hydrolysis Products (RRT-0.79-0.84) [4, 12]: 0% | BBI-4000 Assay [4, 13]: 2% | BBI-4000 Main Hydrolysis Products (RRT-0.79-0.84) [4, 13]: 0% | BBI-4000 Assay [4, 14]: 2.01% | BBI-4000 Main Hydrolysis Products (RRT-0.79-0.84) [4, 14]: 0% | Change from Baseline (40° C./75%), reduction ([4]; Solvent Content: 100% Ethanol): <1% | BBI-4000 Assay [4, 15]: 1.99% | BBI-4000 Main Hydrolysis Products (RRT-0.79-0.84) [4, 15]: 0% | BBI-4000 Assay [4, 16]: 1.91% | BBI-4000 Main Hydrolysis Products (RRT-0.79-0.84) [4, 16]: 1.90% | BBI-4000 Assay [4, 17]: 1.80% | BBI-4000 Main Hydrolysis Products (RRT-0.79-0.84) [4, 17]: 7.42% | Change from Baseline (40° C./75%), reduction ([4]; Solvent Content: 100% Water): 9.5% | Improvement in HDSS assessments compared to vehicle ([5]; Cohort 2, baseline to Day 15): greater improvement | Proportion of subjects reporting a 2-point improvement in HDSS ([5]; Day 15, aggregate of 5% and 10% gel (8 of 12)): 67%
